Source: US20230183808A1, “Methods of Detecting and Treating Cancers Characterized by Loss of miR15 and miR16 Expression” (priority 2020, published 2023)

Columns and labels:
[1] = system: miR-15a; experiment: miR-15a expression by qRT-PCR after 5-Aza-2′-deoxycytidine treatment; type: cell-based, human; conditions: 5 µM (MEG-01, THP-1, OCI-AML3) or 2.5 µM (U-937, MV4-11), 4 days; in a few cell lines; vs untreated; FIG. 5D
Experimental: (§1) FIGS. 5A-5F show genetic and epigenomic screening of AML cell lines. […] TBP was used as a loading control (TATA-binding protein). […] In FIGS. 5C and 5E, at least 3 clones are analyzed for each cell line. The CpG island is pictured and each vertical bar represent a single CpG (depicted by *) or a single non-CpG site. Black (CpG site) and grey (non-CpG site) squares represent methylated CpG and white squares represent unmethylated CpG.
(§2) Total RNA was isolated from human samples and cell lines using TRIzol (Invitrogen, Carlsbad, CA), following the provided instructions. For qRT-PCR, TaqMan miRNA assays (miR-15a#000389, miR-15b#000390, miR-16#000391, (Thermo Fisher Scientific, Waltham, MA)) were used to detect mature miRNAs. For all RNAs from AML patients, reverse transcription reactions were performed using the TaqMan miRNA Reverse Transcription Kit (Applied Biosystems, Foster City, CA) and a RT primer pool by pooling all miRNA-specific stem-loop primers of interest. […]
(§3) MEG-01, THP-1 and OCI-AML3 cells were treated with 5 µM 5-Aza-2′-deoxycytidine (5-Aza-dC) (Sigma-Aldrich, St. Louis, MO), whereas U-937 and MV4-11 cells were treated with 2.5 µM 5-Aza-dC. After 4 days of treatments (fresh drug was added every 24 hour), cells were harvested and total RNA was isolated and analyzed for qRT-PCR analysis. […]

[2] = system: miR-15b; experiment: miR-15b expression by qRT-PCR after 5-Aza-2′-deoxycytidine treatment; type: cell-based, human; conditions: 5 µM (MEG-01, THP-1, OCI-AML3) or 2.5 µM (U-937, MV4-11), 4 days; in a few cell lines; vs untreated; FIG. 5F
Experimental: as §1, §2, §3

Nc1ncn([C@H]2C[C@H](O)[C@@H](CO)O2)c(=O)n1 [5-Aza-dC, 5-Aza-2′-deoxycytidine]
expression of silenced miR-15a after treatment [1]: increased expression
expression of silenced miR-15b after treatment [2]: increased expression
